Experimental data taken from ChEMBL document CHEMBL6096654, “Allosteric inhibition of PTP1B by bromocatechol-chalcone derivatives” (Eur J Med Chem, 2025).
Calls of active or inactive are those of the source. The calls are words filed in the database; no cut-off is given here.

Key:
[1] = biological target: T1, Tyrosine-protein phosphatase non-receptor type 11 (Homo sapiens, UniProt Q06124); test: Inhibition of SHP2 (unknown origin) using pNPP as substrate incubated for 30 mins by spectrophotometry
T1 sequence (Q06124 whole entry): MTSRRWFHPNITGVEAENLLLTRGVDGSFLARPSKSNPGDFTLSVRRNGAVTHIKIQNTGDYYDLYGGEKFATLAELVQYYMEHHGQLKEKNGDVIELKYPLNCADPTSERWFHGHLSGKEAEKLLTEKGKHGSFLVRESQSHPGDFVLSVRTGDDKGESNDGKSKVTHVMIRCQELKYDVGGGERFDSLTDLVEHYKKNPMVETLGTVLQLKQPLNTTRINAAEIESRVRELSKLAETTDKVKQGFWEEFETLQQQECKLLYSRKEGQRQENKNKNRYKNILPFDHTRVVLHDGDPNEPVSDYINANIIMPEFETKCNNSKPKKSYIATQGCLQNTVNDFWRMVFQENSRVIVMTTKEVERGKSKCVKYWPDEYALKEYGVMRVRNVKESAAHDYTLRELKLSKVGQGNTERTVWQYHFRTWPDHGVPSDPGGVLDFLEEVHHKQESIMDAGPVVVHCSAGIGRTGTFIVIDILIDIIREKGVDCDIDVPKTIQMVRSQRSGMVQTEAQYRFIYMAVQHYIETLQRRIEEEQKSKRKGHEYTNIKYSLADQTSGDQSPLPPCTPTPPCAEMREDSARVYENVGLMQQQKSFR

[2] = biological target: T2, Tyrosine-protein phosphatase non-receptor type 1 (Homo sapiens, UniProt P18031); test: Allosteric inhibition of recombinant human PTP1B (1 to 321 residues) using pNPP as substrate preincubated for 5 mins followed by substrate addition measured after 10 mins
T2 sequence (P18031 whole entry): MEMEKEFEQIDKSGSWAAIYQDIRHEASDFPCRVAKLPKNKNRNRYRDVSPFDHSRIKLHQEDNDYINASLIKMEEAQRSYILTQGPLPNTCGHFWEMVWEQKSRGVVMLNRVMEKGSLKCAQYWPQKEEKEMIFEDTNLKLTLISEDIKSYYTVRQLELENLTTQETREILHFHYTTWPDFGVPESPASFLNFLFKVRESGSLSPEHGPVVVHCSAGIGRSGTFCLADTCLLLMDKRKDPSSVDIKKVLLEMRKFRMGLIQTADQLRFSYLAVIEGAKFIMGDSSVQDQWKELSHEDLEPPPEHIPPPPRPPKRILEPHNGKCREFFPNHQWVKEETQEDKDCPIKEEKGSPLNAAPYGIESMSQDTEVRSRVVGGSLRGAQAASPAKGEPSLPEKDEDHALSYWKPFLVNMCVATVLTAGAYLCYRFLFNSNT

[3] = biological target: T3, Tyrosine-protein phosphatase non-receptor type 1 (Homo sapiens) (UniProt P18031); test: Induction of thermal stabilization of PTP1B in human HepG2 cells at 2.5 u incubated for 6 hrs followed by heat exposure at 51 to 65 degreeC for 4 mins by CETSA; format: cell-based
T3 sequence (whole entry): T2 sequence (P18031 whole entry)

3T3-L1 [4] = test: Inhibition of insulin-resistance in insulin-resistant mouse 3T3-L1 cells assessed as increase in insulin receptor phosphorylation pretreated for 24 hrs followed by compound washout and further addition of insulin measured after 20 mins by Western blot analysis; format: functional, cell-based; conditions: dose 0.625-2.5 µM
HepG2 [5] = test: Inhibition of insulin-resistance in insulin-resistant human HepG2 cells assessed as increase in AKT phosphorylation pretreated for 24 hrs followed by compound washout and further addition of insulin measured after 20 mins by Western blot analysis; format: functional, cell-based; conditions: dose 0.625-2.5 µM
3T3-L1 [6] = test: Inhibition of insulin-resistance in insulin-resistant mouse 3T3-L1 cells assessed as increase in AKT phosphorylation pretreated for 24 hrs followed by compound washout and further addition of insulin measured after 20 mins by Western blot analysis; format: functional, cell-based; conditions: dose 0.625-2.5 µM
HepG2 [7] = test: Induction of glucose uptake in human HepG2 cells cultured in low glucose medium containing compound for 24 hrs; format: functional, cell-based; conditions: dose 0.625-2.5 µmol/L
C2C12 = test: Induction of glucose uptake in mouse C2C12 cells cultured in low glucose medium containing compound for 24 hrs; format: functional, cell-based; conditions: dose 0.625-2.5 µmol/L
[8] = Acute toxicity in Kunming mouse assessed as behavioural changes at 2000 mg/kg, po measured for 14 days; format: organism-based; conditions: in vivo, 336 h, time 14 day
[9] = Toxicity in BKD db/db mouse assessed as effect on food intake at 40 to 80 mg/kg/day, po qd for 8 weeks; format: organism-based; conditions: in vivo, 1344 h, dose 40-80 mg/kg/day
Mus musculus [10] = test: Hypoglycemic activity in BKD db/db mouse assessed as decrease in blood glucose level at 40 to 80 mg/kg/day, po qd for 3 to 4 weeks; format: functional, organism-based; conditions: dose 40-80 mg/kg/day, time 3-4 weeks
Mus musculus [11] = test: Hypoglycemic activity in BKD db/db mouse assessed as decrease in blood glucose level at 40 to 80 mg/kg/day, po for 7 weeks followed by insulin injection by […] method; format: functional, organism-based; conditions: dose 40-80 mg/kg/day
Mus musculus [12] = test: Hypoglycemic activity in BKD db/db mouse assessed as increase in insulin receptor phosphorylation in liver at 40 to 80 mg/kg/day, po for 8 weeks by Western blot analysis; format: functional, organism-based; conditions: dose 40-80 mg/kg/day
Mus musculus [13] = test: Hypoglycemic activity in BKD db/db mouse assessed as increase in insulin receptor phosphorylation in skeletal muscle at 40 to 80 mg/kg/day, po for 8 weeks by Western blot analysis; format: functional, organism-based; conditions: dose 40-80 mg/kg/day
Mus musculus [14] = test: Hypoglycemic activity in BKD db/db mouse assessed as increase in AKT phosphorylation in skeletal muscle at 40 to 80 mg/kg/day, po for 8 weeks by Western blot analysis; format: functional, organism-based; conditions: dose 40-80 mg/kg/day
Mus musculus [15] = test: Hypoglycemic activity in BKD db/db mouse assessed as reduction in lipid droplet accumulation in liver at 40 to 80 mg/kg/day, po for 8 weeks by H and E staining based analysis; format: functional, organism-based; conditions: dose 40-80 mg/kg/day
Mus musculus [16] = test: Hypoglycemic activity in BKD db/db mouse assessed as regular arrangement of liver cells at 40 to 80 mg/kg/day, po for 8 weeks by H and E staining based analysis; format: functional, organism-based; conditions: dose 40-80 mg/kg/day

With `CCOc1ccc(Oc2ccc(C(=O)/C=C/c3cc(O)c(O)c(Br)c3Br)cc2)cc1` the IC50 [1] was over 20 µM, the Ki [2] was 2330 nM and the Activity [3] was “Active”. For the same molecule, the inhibition (3T3-L1 [4]) was “Dose-dependent-effect”, the inhibition (HepG2 [5]) was “Dose-dependent-effect” and the inhibition (3T3-L1 [6]) was “Dose-dependent-effect”. For the same molecule, the Activity (HepG2 [7]) was “Dose-dependent-effect”, the Activity (C2C12) was “Dose-dependent-effect” and the Activity [8] was “Non-toxic”. The Activity [9] was “Non-toxic”, the Activity (Mus musculus [10]) was “Active” and the Activity (Mus musculus [11]) was “Active”. For the same molecule, the Activity (Mus musculus [12]) was “Active”, the Activity (Mus musculus [13]) was “Active” and the Activity (Mus musculus [14]) was “Active”. For the same molecule, the Activity (Mus musculus [15]) was “Active” and the Activity (Mus musculus [16]) was “Active”.
